Assay results as given in patent US9376424B2, “Methods for treating post traumatic stress disorder” (AZEVAN PHARMACEUTICALS, INC., priority 2010, dated 2016).
Read-outs that look alike come from different tables or passages of the source.

What was measured:
V2 = V2 (Homo sapiens, UniProt P30518); assay: V2 receptor inhibition data (Ki); assay type: binding; settings: selectivity table
human V1a receptor = target: T1, human V1a receptor (Homo sapiens, UniProt P37288); assay: Human vasopressin V1a receptor binding assay (3H-AVP competition, hV1a cell line)
T1 construct: host or cells: CHO cells
T1 sequence (P37288 whole entry): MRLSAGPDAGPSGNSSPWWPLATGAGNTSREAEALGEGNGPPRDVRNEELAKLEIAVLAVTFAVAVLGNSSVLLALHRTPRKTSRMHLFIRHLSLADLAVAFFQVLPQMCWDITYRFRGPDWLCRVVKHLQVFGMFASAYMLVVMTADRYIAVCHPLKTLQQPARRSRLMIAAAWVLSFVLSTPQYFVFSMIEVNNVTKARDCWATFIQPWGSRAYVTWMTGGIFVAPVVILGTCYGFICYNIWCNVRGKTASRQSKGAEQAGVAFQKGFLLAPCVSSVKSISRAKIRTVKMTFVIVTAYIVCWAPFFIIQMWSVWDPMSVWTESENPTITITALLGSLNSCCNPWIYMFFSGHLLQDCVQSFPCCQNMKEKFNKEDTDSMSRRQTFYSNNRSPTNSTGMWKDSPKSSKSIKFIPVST
Method: Human vasopression V1a receptor binding assay. A cell line expressing the human V1a receptor in CHO cells (henceforth referred to as the hV1a cell line) was obtained from Dr. Michael Brownstein, NIMH, Bethesda, Md., USA. The hV1a cDNA sequence is described by Thibonnier et al., Journal of Biological Chemistry, 269, 3304-3310 (1994), and the expression method was the same as described by Morel et al. (1992). The hV1a cell line was grown in alpha-MEM with 10% fetal bovine serum and 250 ug/ml G418 (Gibco, Grand Island, N.Y., USA). For competitive binding assay, hV1a cells were plated into 6-well culture plate at 1:10 dilution from a confluency flask, and maintained in culture for at least two days. Culture medium was then removed, cells were washed with 2 ml binding buffer (25 mM Hepes, 0.25% BSA, 1×DMEM, PH=7.0). To each well, 990 μl binding buffer containing 1 nM 3H-AVP was added, and followed by 10 μl series diluted Example compounds dissolved in DMSO. […] 100 nM cold AVP (Sigma) was used to assess non-specific binding. Cells were incubated for 45 minutes at 37° C., assay mixture was removed and each well was washed three times with PBS (pH=7.4). 1 ml 2% SDS was added per well and plates were let sit for 30 minutes. The whole content in a well was transferred to a scintillation vial. Each well was rinsed with 0.5 ml PBS which was then added to the corresponding vial. Scintillation fluid (Ecoscint, National Diagnostics, Atlanta, Ga.) was then added at 3 ml per vial. Samples were counted in a liquid scintillation counter (Beckman LS3801). IC50 values were calculated by Prism Curve fitting software.
All of the alkanedioic esters and amides exemplified in the foregoing examples dissolved in DMSO were tested in this assay. Binding curves were generated according to methods described by Thibonnier et al. (1994). [^3H]-AVP was added to the hV1a cell cultures followed by 10-fold dilutions of each test compound.

V2, sequence (P30518 whole entry): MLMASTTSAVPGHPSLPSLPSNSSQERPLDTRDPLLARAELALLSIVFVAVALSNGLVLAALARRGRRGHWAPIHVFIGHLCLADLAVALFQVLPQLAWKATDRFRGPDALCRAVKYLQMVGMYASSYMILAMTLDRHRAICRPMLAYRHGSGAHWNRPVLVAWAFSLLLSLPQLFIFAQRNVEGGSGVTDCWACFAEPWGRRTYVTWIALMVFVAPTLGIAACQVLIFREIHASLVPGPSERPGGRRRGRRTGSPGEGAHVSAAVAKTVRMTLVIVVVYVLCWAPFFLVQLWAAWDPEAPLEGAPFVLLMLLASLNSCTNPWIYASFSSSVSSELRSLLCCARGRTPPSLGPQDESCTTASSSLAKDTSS

For `CN(Cc1cccc(C(F)(F)F)c1)C(=O)[C@@H](CC(=O)N1CCC(N2CCCCC2)CC1)N1C(=O)[C@@H](N2C(=O)OC[C@@H]2c2ccccc2)[C@H]1C=Cc1ccccc1` [Example 225, 2(R)-[[4-(Piperidinyl)piperidinyl]carbonylmethyl]-2-[3(S)-(4(S)-phenyloxazolidin-2-on-3-yl)-4(R)-(2-styryl)azetidin-2-on-1-yl]acetic acid N-methyl-N-(3-trifluoromethylbenzyl)amide], the Ki (V2) was > 1000 nM, the IC50 (human V1a receptor; CHO cells expressing human V1a, 1 nM 3H-AVP, read-out: V1a Binding Affinity IC50) was 1.08 nM and the Ki (human V1a receptor; CHO cells expressing human V1a, 1 nM 3H-AVP, read-out: V1a Ki) was 0.66 nM. It also gave an IC50 (human V1a receptor; read-out: IC50, dose-dependent competitive binding curve, hV1a cell line, [3H]-AVP) of 1.86 to 2.13 nM, a Ki (human V1a receptor; read-out: Ki, dose-dependent competitive binding curve, hV1a cell line, [3H]-AVP) of 1.14 to 1.3 nM and a Ki (human V1a receptor; selectivity table, read-out: inhibition data (Ki, nM), Receptor V1a) of 0.66 nM.
